According to patent US4980359A, “Isoquinoline derivatives and their use” (Sandoz Ltd., priority 1988, dated 1990):

Assays:
[1] = tested on: PAF-induced lung eosinophil accumulation; experiment: Inhibition of eosinophil accumulation (PAF-induced lung eosinophilia); type: in vivo, Guinea-pigs (Dunkin-Hartley); conditions: Cavia porcellus, sc, 168 h, method C, over 7 days
Procedure: EXAMPLE C: INHIBITION OF EOSINOPHIL ACCUMULATION
Guinea-pigs (Dunkin-Hartley 400-600 g) are injected intraperitoneally with 10 μg/kg of PAF, a procedure which produces lung eosinophilia.
Animals are sacrificed with pentobarbital (100 mg/kg i.p.) 24 hours later. The trachea is exposed and cannulated and the airway lumen washed by introduction and aspiration of 10 ml aliquots (x6) of buffered modified Tyrode solution (composition mM: NaHCO3 11.9, NaCl 136.9, KCl 2.7, Na2 HPO4, glucose 5.6, EDTA 19.8; protein % w/v=gelatin 0.1, BSA 0.5; pH to 7.4 by addition of 2N NaOH). Total fluid recovery generally exceeds 80%.
Cell suspensions are concentrated by low speed centrifugation (200 g for 10 mins.) and the resulting cell pellet is resuspended in 1 ml modified Tyrode solution. Total cell counts are effected in a haemocytometer by diluting 10 μl cell suspension in 90 μl Turks fluid. Differential cell counts are made from smears fixed in 100% methanol and stained with Leishman stain. At least 500 cells smear are counted at 1000 fold magnification to differentiate cell types.
Test compound is administered over 7 days at varying concentration in 1 mg/kg s.c. amounts with exposure to PAF occurring 5 days after commencement of test compound administration. […]

[2] = tested on: bombesin-induced bronchospasm; experiment: Bronchodilator activity in vivo (reversal of bombesin-induced bronchospasm); design: species or system Guinea pigs (Dunkin-Hartley); conditions: Cavia porcellus, method A.2, intra. duodenally
Procedure: 2. Bronchodilator activity in vivo
Guinea pigs (Dunkin-Hartley, .male., 400-600 g) are anesthetized with phenobarbital (100-mg/kg i.p.) and pentobarbital (30 mg/kg i.p.) and paralyzed with gallamine (10 mg/kg i.m.). Animals are ventilated via a tracheal cannula (10 ml/kg, 1Hz.). Blood pressure and heart rate are recorded at the carotid artery. Ventilation is monitored by a Fleisch flow transducer in lien with the inspiratory circuit. When making measurements of flow, coincident pressure changes in the thorax are monitored directly via an intrathoracic trochar, permitting display of differential pressure relative to the trachea. From this information resistance and compliance are calculated at each inspiration.
Continuous intravenous infusion of bombesin (50-100 ng/kg/min) induces sustained bronchospasm. Capacity of test-substance to reverse response when administered intra-duodenally via a 12 gauge metal needle fixed by a purse string ligature into the peripheral end of the transected duodenum serves as a measure of efficacy in reversing established bronchospasm.
The bronchodilator response is taken as the percentage reduction of the maximal response to bombesin, measured at regular intervals, up to 64 mins..

[3] = tested on: PAF-induced airways hyperreactivity; experiment: Suppression of airways hyperreactivity, PAF-treated animals; type: in vivo, Guinea-pigs; conditions: Cavia porcellus, iv, method B
Procedure: Guinea-pigs are anesthetized and prepared for recording of lung function as described under example A.2. above. Intravenous injection of low dose bombesin (240 ng/kg) establishes airways sensitivity to spasmogens. Following infusion of PAF (platelet activating factor) over 1 hr.

[4] = tested on: guinea-pig tracheal ring preparations; experiment: Bronchospasmolytic activity in vitro (relaxation of tracheal rings); conditions: Cavia porcellus; method A.1, guinea-pig tracheal rings in vitro
Description: 1. Bronchospasmolytic activity in vitro
The trachea is excised from freshly sacrificed guinea-pigs (Dunkin-Hatley (350-500 g) and transected in the transverse plane to give rings of tissue of ca. 3-5 mm deep. Individual rings are mounted vertically on stainless steel supports, one of which is fixed at the base of an organ bath, the other being attached to an isometric transducer. The rings are bathed in Krebs solution (composition […]: NaHCO3 25, NaCl 113, KCl 4.7, MgSO4.7H2) 1.2, KHhd 2PO4 1.2, CaCl2 2.5, Glucose 11.7) at 37° C. and gassed with O2 /CO2 (95:5, v/v). Rings prepared in this manner, preloaded with 1 g, generate spontaneous tone and, after a period of equilibration (45-60 min.), relax consistently on addition of spasmolytic drugs. Tension can be enhanced by addition of carbachol (10^-6 M) or histamine (10^-4 M). To ascertain spasmolytic activity, test substances are dissolved in physiological saline and added in increasing quantities to the organ bath at 10 min. intervals to provide a cumulative concentration-effect curve.
In the above test model compounds of formula I and their pharmaceutically acceptable acid addition salts produce concentrationrelated relaxation of guinea-pig tracheal ring preparations irrespective of the contractile agency at concentrations of from about 10^-7 to about 10^-5 M.

| SMILES | ED50 [1] [mg/kg] | ED50 [2] [mg/kg] | ED50 [3] [mg/kg] | IC50 [4] [µM] |
| --- | --- | --- | --- | --- |
| COCCOc1cc(OCCOC)cc(-c2nc(C)cc3cc(OC)c(OC)cc23)c1 [Example 12, 3-methyl-6,7-dimethoxy-1-(3,5-dimethoxyethoxy-phenyl)-isoquinoline] | < 2 | ~2 | < 1 | 0.3 |
| Cn1c(=O)c2[nH]cnc2n(C)c1=O [Theophylline, theophylline] | 5 | 11 | 5 | 77 |
